Measurements: patent US20040006070A1, “Intraspinal continuous infusion of midazolam hydrochloride for the treatment of pain” (priority 2002, published 2004)
Where a name gives a salt, the structure may show the parent alone.

Test: Bloodwork: complete blood count, electrolytes, extended blood chemistry
Assay type: in vivo, sheep
Protocol: Indirect blood pressure, pulse recording, pain testing (mechanical stimulus device, cold and warm water baths see description in procedure) and weight were taken on days 1, 3, 7, 15, 22, 29, 36, and 43. Venous blood samples (15 ml drawn from the jugular vein with Vacutainer brand blood collection tubes) for complete blood count, electrolytes, and extended blood chemistry were drawn on days 1, 15, and 43 (mild procedure only light hand restraint necessary).

[1] = Double Blinded Sheep, Chemistries, Day 15
[2] = Double Blinded Sheep, Chemistries, Day 43
[3] = sheep #84 Roadrunner, 15 mg/day, Baseline
[4] = sheep #84 Roadrunner, 15 mg/day, Day 1

## Cc1ncc2n1-c1ccc(Cl)cc1C(c1ccccc1F)=NC2 [Midazolam, midazolam hydrochloride]
[1]
  ALT: 10 U/L
  AST: 72 U/L
  CPK: 100 U/L
  Cholesterol: 74 mg/dL
Double Blinded Sheep, Chemistries, Day 15, reference range 0.14-0.32
  Total Bili: 0.1 mg/dL
Double Blinded Sheep, Chemistries, Day 15, reference range 1-2.7
  Creatinine: 1.1 mg/dL
Double Blinded Sheep, Chemistries, Day 15, reference range 2.4-3
  Albumin: 3.6 g/dL
Double Blinded Sheep, Chemistries, Day 15, reference range 3.9-5.4
  K+: 4.8 mEq/l
Double Blinded Sheep, Chemistries, Day 15, reference range 5-7.3
  Phos: 6.4 mg/dL
Double Blinded Sheep, Chemistries, Day 15, reference range 6-7.9
  Total Prot: 7.1 g/dL
Double Blinded Sheep, Chemistries, Day 15, reference range 8-20
  BUN: 25 mg/dL
Double Blinded Sheep, Chemistries, Day 15, reference range 25-59
  Gamma GT: 87 U/L
Double Blinded Sheep, Chemistries, Day 15, reference range 42-76
  Glucose: 82 mg/dL
Double Blinded Sheep, Chemistries, Day 15, reference range 68-387
  Alk Phos: 154 U/L
Double Blinded Sheep, Chemistries, Day 15, reference range 139-152
  Na+: 146 mEq/l
[2]
  ALT: 15 U/L
  AST: 78 U/L
  CPK: 96 U/L
  Cholesterol: 80 mg/dL
Double Blinded Sheep, Chemistries, Day 43, reference range 0.14-0.32
  Total Bili: 0.1 mg/dL
Double Blinded Sheep, Chemistries, Day 43, reference range 1-2.7
  Creatinine: 1.0 mg/dL
Double Blinded Sheep, Chemistries, Day 43, reference range 2.4-3
  Albumin: 3.6 g/dL
Double Blinded Sheep, Chemistries, Day 43, reference range 3.9-5.4
  K+: 5.7 mEq/l
Double Blinded Sheep, Chemistries, Day 43, reference range 5-7.3
  Phos: 6.9 mg/dL
Double Blinded Sheep, Chemistries, Day 43, reference range 6-7.9
  Total Prot: 6.9 g/dL
Double Blinded Sheep, Chemistries, Day 43, reference range 8-20
  BUN: 26 mg/dL
Double Blinded Sheep, Chemistries, Day 43, reference range 25-59
  Gamma GT: 73 U/L
Double Blinded Sheep, Chemistries, Day 43, reference range 42-76
  Glucose: 70 mg/dL
Double Blinded Sheep, Chemistries, Day 43, reference range 68-387
  Alk Phos: 179 U/L
Double Blinded Sheep, Chemistries, Day 43, reference range 139-152
  Na+: 146 mEq/l
Sheep #83, 15 mg/day, Day 1
  ALT: 0 U/L
  AST: 102 U/L
  Alk Phos: 48 U/L
  BUN: 8 mg/dL
  CPK: 65 U/L
  Cholesterol: 47 mg/dL
  Differential Count: Eosin: 1%
  Differential Count: Lymph: 55%
  Differential Count: Mono: 5%
  Differential Count: Seg: 39%
  Gamma GT: 62 U/L
  Glucose: 78 mg/dL
  Hct: 37.2%
  Hgb: 12.7 g/dL
  MCH: 11.3 pg
  MCHC: 34.0 g/dL
  MCV: 33.2 fL
  Na+: 148 mEq/l
  Platlet Count: 879000 µL⁻¹
  RBC: 1.12e+07 µL⁻¹
  WBC: 5320 µL⁻¹
Sheep #83, 15 mg/day, Day 1, ref 0.14-0.32
  Total Bili: 0.1 mg/dL
Sheep #83, 15 mg/day, Day 1, ref 1-2.7
  Creatinine: 1.4 mg/dL
Sheep #83, 15 mg/day, Day 1, ref 2.4-3
  Albumin: 3.3 g/dL
Sheep #83, 15 mg/day, Day 1, ref 3.9-5.4
  K+: 4.2 mEq/l
Sheep #83, 15 mg/day, Day 1, ref 5-7.3
  Phos: 7.1 mg/dL
Sheep #83, 15 mg/day, Day 1, ref 6-7.9
  Total Prot: 6.1 g/dL
Sheep #83, 15 mg/day, Day 15
  ALT: 8 U/L
  AST: 52 U/L
  Alk Phos: 90 U/L
  BUN: 90 mg/dL
  CPK: 107 U/L
  Cholesterol: 65 mg/dL
  Differential Count: Eosin: 1%
  Differential Count: Lymph: 68%
  Differential Count: Mono: 2%
  Differential Count: Seg: 29%
  Gamma GT: 72 U/L
  Glucose: 66 mg/dL
  Hct: 33.2%
  Hgb: 11.5 g/dL
  MCH: 11.4 pg
  MCHC: 34.7 g/dL
  MCV: 33.0 fL
  Na+: 147 mEq/l
  Platlet Count: 296000 µL⁻¹
  RBC: 1e+07 µL⁻¹
  WBC: 4390 µL⁻¹
Sheep #83, 15 mg/day, Day 15, ref 0.14-0.32
  Total Bili: 0.1 mg/dL
Sheep #83, 15 mg/day, Day 15, ref 1-2.7
  Creatinine: 1.2 mg/dL
Sheep #83, 15 mg/day, Day 15, ref 2.4-3
  Albumin: 3.3 g/dL
Sheep #83, 15 mg/day, Day 15, ref 3.9-5.4
  K+: 4.5 mEq/l
Sheep #83, 15 mg/day, Day 15, ref 5-7.3
  Phos: 5.1 mg/dL
Sheep #83, 15 mg/day, Day 15, ref 6-7.9
  Total Prot: 5.9 g/dL
Sheep #83, 15 mg/day, Day 43
  ALT: 6 U/L
  AST: 53 U/L
  Alk Phos: 96 U/L
  BUN: 14 mg/dL
  CPK: 49 U/L
  Cholesterol: 52 mg/dL
  Differential Count: Atyp lym: 2%
  Differential Count: Eosin: 3%
  Differential Count: Lymph: 70%
  Differential Count: Mono: 3%
  Differential Count: Seg: 22%
  Gamma GT: 54 U/L
  Glucose: 83 mg/dL
  Hct: 34.9%
  Hgb: 11.9 g/dL
  MCH: 11.1 pg
  MCHC: 31.1 g/dL
  MCV: 32.5 fL
  Na+: 149 mEq/l
  Platlet Count: 576000 µL⁻¹
  RBC: 1.07e+07 µL⁻¹
  WBC: 4770 µL⁻¹
Sheep #83, 15 mg/day, Day 43, ref 0.14-0.32
  Total Bili: 0.1 mg/dL
Sheep #83, 15 mg/day, Day 43, ref 1-2.7
  Creatinine: 1.3 mg/dL
Sheep #83, 15 mg/day, Day 43, ref 2.4-3
  Albumin: 3.6 g/dL
Sheep #83, 15 mg/day, Day 43, ref 3.9-5.4
  K+: 4.9 mEq/l
Sheep #83, 15 mg/day, Day 43, ref 5-7.3
  Phos: 6.2 mg/dL
Sheep #83, 15 mg/day, Day 43, ref 6-7.9
  Total Prot: 6.6 g/dL
[3]
  Differential Count: Eosin: 5%
  Differential Count: Lymph: 62%
  Differential Count: Mono: 1%
  Differential Count: Seg: 32%
  Hct: 41.9%
  Hgb: 15.0 g/dL
  MCH: 10.7 pg
  MCHC: 35.7 g/dL
  MCV: 30.0 fL
  Platlet Count: 721000 µL⁻¹
  RBC: 1.4e+07 µL⁻¹
  WBC: 5790 µL⁻¹
[4]
  ALT: 9 U/L
  AST: 100 U/L
  Albumin: 3.3 g/dL
  Alk Phos: 93 U/L
  BUN: 7 mg/dL
  CPK: 90 U/L
  Cholesterol: 45 mg/dL
  Creatinine: 1.2 mg/dL
  Differential Count: Eosin: 8%
  Differential Count: Lymph: 43%
  Differential Count: Mono: 3%
  Differential Count: Seg: 46%
  Gamma GT: 51 U/L
  Glucose: 69 mg/dL
  Hct: 35.7%
  Hgb: 12.9 g/dL
  K+: 4.8 mEq/l
  MCH: 11.0 pg
  MCHC: 36.1 g/dL
  MCV: 30.4 fL
  Na+: 148 mEq/l
  Phos: 6.2 mg/dL
  Platlet Count: 962000 µL⁻¹
  RBC: 1.17e+07 µL⁻¹
